The source of these data is US20090220537A1, “VACCINE DELIVERY SYSTEM” (THE UNIVERSITY OF QUEENSLAND, priority 2005, published 2009).

One test has as its system RSV. Type of test: in vivo, mice.
For test [1], the system named is E7-expressing TC-1 tumour cells. Type of test: in vivo. Particulars: H-2b mice immunised twice, 2×10^5 TC-1 cells two weeks after second immunisation; within 15 days; FIG. 6C.

As for “ESYIGSINNITKQSA [M215 peptide + adjuvant]”, the “Mean RSV load per ½-lung in mice with detectable infection” value in the test on RSV (BALB/c mice challenged intranasally with 8×10^5 pfu RSV, lungs 4 days later, immunofocus assay) is 1.0 × 10^3 pfu. In the test with RSV (BALB/c mice, 5 per group, challenged intranasally with 8×10^5 pfu RSV 3 weeks after immunisation, lungs 4 days later, limit of detection 5×10^2 pfu/lung, listed as M15 peptide+adjuvant), the “Number of mice (%) with detectable RSV in lungs” value is reported as “One of five”. The “RSV-specific immunostaining of lung cryosections” value in the test on RSV (indirect immunofluorescence, 4 days after challenge, FIG. 5) is recorded as “reduced staining”.
As for RAHYNIVTF [RAH peptide+adjuvant], the “Mice that developed tumour” value in test [1] is “level of protection was consistent with that observed”.
